“Also recorded” adds a separate entry of the source.
Key:
Format in all cases: in vivo, mouse
[1] = tested on: TIMP-4; experiment: qRT-PCR of TIMP-4 mRNA in left ventricle after TAC/sham
Method: (§1) 11 to 13 week old male C57BL/6 mice were purchased from Charles River (Germany). Mice were housed in individually ventilated pathogen-free cages with free access to water and standard rodent chow. The animals were handled according to the principles of laboratory animal care (NIH publication No. 85-23, revised 1996), and animal procedures were approved by the local committee for animal care.
(§2) The first injection was performed 5 min prior to TAC or sham-operation procedure (described below) and repeated 4, 8, 12, 24, 36, 48 and 60 hrs after surgery. […]
(§3) Quantitative real-time PCR analysis was completed. […] RNA was dissolved in 100 μl of RNase-free water, and concentration was determined photometrically (absorbance at 260 nm) before storage at −80° C. […]
(§4) Real-time PCR was performed according to the manufacturer's protocol. […] Each sample was measured in triplicate wells and underwent 40 cycles of amplification on an ABI PRISM® Sequence Detection System (Applied Biosystems). CT values were determined with SDS Software 2.2 (Applied Biosystems) and relative quotients (RQ) were calculated following the ΔΔCT method (RQ target gene/GAPDH).
(§5) Statistics were calculated using Prism 4.05 (GraphPad Software Inc., CA, USA). All values are expressed as mean (M)±SEM. […]

[2] = tested on: IL-6; experiment: ELISA of IL-6 protein in myocardial tissue after TAC/sham
Method: as §1
The first injection was performed 5 min prior to TAC or sham-operation procedure (described below) and repeated 4, 8, 12, 24, 36, 48 and 60 hrs after surgery. Animals were randomly assigned into two groups, receiving either a tetrasodium salt of the compound of formula 1 (hereinafter “Eritoran tetrasodium”) or placebo. […]
For ELISA assays, proteins from snap-frozen myocardial tissue were isolated and cytosolic and nuclear proteins separated according to the manufacturer's protocol (NE-PER®, Nuclear and Cytoplasmic Extraction Kit, Pierce®, Thermo Scientific, IL, USA). Myocardial protein levels in the cytoplasmic fraction were detected with Quantikine mouse IL-1β as well as IL-6 ELISA (R&D Systems, […], USA) as described in the manufacturer's protocol. […] Protein concentration was determined by B CA protein assay (Pierce®).
as §5

[3] = tested on: atrial natriuretic peptide (ANP); experiment: qRT-PCR of ANP mRNA in left ventricle after TAC/sham
Method: as §1, §2, §3, §4, §5

[4] = tested on: IL-6; experiment: qRT-PCR of IL-6 mRNA in left ventricle after TAC/sham
Method: as §1, §2, §3, §4, §5

[5] = tested on: TLR4; experiment: qRT-PCR of TLR4 mRNA in left ventricle after TAC/sham
[6] = tested on: TIMP-1; experiment: qRT-PCR of TIMP-1 mRNA in left ventricle after TAC/sham
Method: as §1
The first injection was performed 5 min prior to TAC or sham-operation procedure (described below) and repeated 4, 8, 12, 24, 36, 48 and 60 hrs after surgery. Animals were randomly assigned into two groups, receiving either a tetrasodium salt of the compound of formula 1 (hereinafter “Eritoran tetrasodium”) or placebo. The catheter was flushed with 50 μl 0.9% NaCl before and 100 μl after each injection of 50 μl Eritoran tetrasodium (2.5 mg/ml vehicle; 5 mg/kg bodyweight/application; dosage adopted from Shimamoto et al., Circulation 2006, 114: 1270-1274) or placebo solution.
Treatment groups were separated into two subgroups, undergoing transverse aortic constriction (TAC) or sham operation. […]
as §3, §4
Statistics were calculated using Prism 4.05 (GraphPad Software Inc., CA, USA). All values are expressed as mean (M)±SEM. One-way ANOVA with Newman-Keuls post-hoc testing was performed for statistical analysis with the exception of TIMP and cytokine expression which were analysed with Kruskal-Wallis and Dunn's multiple comparison post-hoc testing Impact of TAC-Eritoran on IL-10 expression was analysed with Two-way ANOVA. […]

[7] = tested on: MMP-9; experiment: Gelatine zymography of MMP activity in left ventricular tissue after TAC
Method: as §1
The first injection was performed 5 min prior to TAC or sham-operation procedure (described below) and repeated 4, 8, 12, 24, 36, 48 and 60 hrs after surgery. Animals were randomly assigned into two groups, receiving either a tetrasodium salt of the compound of formula 1 (hereinafter “Eritoran tetrasodium”) or placebo. The catheter was flushed with 50 μl 0.9% NaCl before and 100 μl after each injection of 50 μl Eritoran tetrasodium (2.5 mg/ml vehicle; 5 mg/kg bodyweight/application; dosage adopted from Shimamoto et al., Circulation 2006, 114: 1270-1274) or placebo solution. […]
For zymographic measurement of MMP activity, protein isolates from left ventricular tissue (60 μg protein content, isolated with NE-PER protein isolation kit; Pierce®) were mixed with 2× Tris-Glycine SDS sample buffer, and loaded on precast zymogram gels (SDS-PAGE; BioRad, Germany) containing […]. […] Areas of protease activity were detected as transparent bands against blue background. […]

[8] = Example 1, TAC, three days after surgery
[9] = Example 2, TAC treated vs TAC-placebo

Compound | TIMP-4 mRNA expression ([1]; Example 1, sham and TAC groups, three days after surgery) | IL-6 protein expression (ELISA) [2, 8] | ANP mRNA expression ([3]; Example 1, TAC, vs TAC placebo, three days after surgery) | IL-6 mRNA level ([4]; Example 1, TAC, three days after surgery, qRT-PCR, M ± SEM) | TLR4 mRNA expression [5, 8] | TLR4 mRNA expression ([5]; Example 1, sham operation, three days after surgery) | TIMP-1 mRNA expression ([6]; Example 1, TAC, three days after surgery, RQ target gene/GAPDH) | TIMP-1 mRNA expression ([6]; Example 1, sham operation, three days after surgery, RQ target gene/GAPDH) | MMP (MMP-9) zymographic activity [7, 8] | TIMP-4 mRNA expression [1, 9] | IL-6 protein expression ([2]; Example 2, TAC treated group) | ANP mRNA expression [3, 9] | IL-6 mRNA expression [4, 9] | TLR4 mRNA expression [5, 9] | TIMP-1 mRNA expression [6, 9] | MMP-9 zymographic activity [7, 9]
CCCCCC/C=C\CCCCCCCCCC(=O)N[C@H]1[C@H](OC[C@H]2O[C@H](OP(=O)([O-])[O-])[C@H](NC(=O)CC(=O)CCCCCCCCCCC)[C@@H](OCCCCCCCCCC)[C@@H]2O)O[C@H](COC)[C@@H](OP(=O)([O-])[O-])[C@@H]1OCC[C@@H](CCCCCCC)OC.[Na+].[Na+].[Na+].[Na+] [Eritoran tetrasodium] | no significant differences between groups | did not display significant increases; also recorded: lower levels of pro-inflammatory cytokines compared to TAC placebo hearts (not significant) | markedly decreased BNP but not ANP expression | 16.60 ± 7.55 | no significant effects | had no effects on the mRNA expression | 23.20±14.52 | 1.16±0.40 | attenuated; also recorded: reduced zymographic activity of MMP-9 | – | – | – | – | – | – | –
CCCCCC/C=C\CCCCCCCCCC(=O)N[C@H]1[C@H](OC[C@H]2O[C@H](OP(=O)(O)O)[C@H](NC(=O)CC(=O)CCCCCCCCCCC)[C@@H](OCCCCCCCCCC)[C@@H]2O)O[C@H](COC)[C@@H](OP(=O)(O)O)[C@@H]1OCC[C@@H](CCCCCCC)OC [compound of formula (I), α-D-Glucopyranose, 3-O-decyl-2-deoxy-6-O-[2-deoxy-3-O-[(3R)-3-methoxydecyl)-6-O-methyl-2-[[(−11Z)-1-oxo-11-octadecenyl)amino]-4-O-phosphono-β-D-glucopyranosyl]-2-[(1,3-dioxotetradecyl)amino]-1-(dihydrogen phosphate)] | – | – | – | – | – | – | – | – | – | higher | reduced | elevated in TAC-placebo mice compared to sham and the TAC groups treated | lower | significantly reduced | higher | higher in the TAC-placebo animals compared to the TAC groups treated
